How the values were obtained:
Experiment in all cases: relative viability (nuclei count vs DMSO), 5 days (fraction); higher = more cells survive
[1] = tested on: A549
How it was run: (§1)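 Each reported value is a median over duplicate plates. It expresses relative viability: treated-well nuclei count divided by vehicle-well nuclei count. Lung cancer cell lines in 1536-well plates were dosed by pin tool a day after seeding, alone with one drug or with a fixed anchor-drug dose plus five library-drug doses (not always all listed) in √10 steps, and nuclei were counted after 5 days.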

[2] = tested on: ABC-1
How it was run: as §1

[3] = tested on: Calu-6
How it was run: as §1

[4] = tested on: EBC-1
How it was run: as §1

[5] = tested on: EMC-BAC-2
How it was run: as §1

[6] = tested on: IA-LM
How it was run: as §1

[7] = tested on: NCI-H1299
How it was run: as §1

[8] = tested on: NCI-H1703
How it was run: as §1

[9] = tested on: NCI-H2009
How it was run: as §1

[10] = tested on: NCI-H2228
How it was run: as §1

CCNC(=O)c1noc(-c2cc(C(C)C)c(O)cc2O)c1-c1ccc(CN2CCOCC2)cc1 [Luminespib] + C[C@@H](Oc1cc(-c2cnn(C3CCNCC3)c2)cnc1N)c1c(Cl)ccc(F)c1Cl [Crizotinib] (partner 1 µM)
relative viability ([1]; first compound 0.002 µM): 0.861 | relative viability ([1]; first compound 0.006325 µM): 0.593 | relative viability ([1]; first compound 0.02 µM): 0.51 | relative viability ([1]; first compound 0.06325 µM): 0.0411 | relative viability ([1]; first compound 0.2 µM): 0.0426 | relative viability ([2]; first compound 0.002 µM): 1.55 | relative viability ([2]; first compound 0.006325 µM): 0.877 | relative viability ([2]; first compound 0.02 µM): 1.06 | relative viability ([2]; first compound 0.06325 µM): 0.19 | relative viability ([2]; first compound 0.2 µM): 0.18 | relative viability ([3]; first compound 0.002 µM): 0.793 | relative viability ([3]; first compound 0.006325 µM): 0.88 | relative viability ([3]; first compound 0.02 µM): 1.01 | relative viability ([3]; first compound 0.06325 µM): 0.109 | relative viability ([3]; first compound 0.2 µM): 0.097 | relative viability ([4]; first compound 0.002 µM): 0.196 | relative viability ([4]; first compound 0.006325 µM): 0.195 | relative viability ([4]; first compound 0.02 µM): 0.179 | relative viability ([4]; first compound 0.06325 µM): 0.173 | relative viability ([4]; first compound 0.2 µM): 0.165 | relative viability ([5]; first compound 0.002 µM): 0.844 | relative viability ([5]; first compound 0.006325 µM): 0.772 | relative viability ([5]; first compound 0.02 µM): 0.584 | relative viability ([5]; first compound 0.06325 µM): 0.729 | relative viability ([5]; first compound 0.2 µM): 0.759 | relative viability ([6]; first compound 0.002 µM): 0.753 | relative viability ([6]; first compound 0.006325 µM): 0.848 | relative viability ([6]; first compound 0.02 µM): 1 | relative viability ([6]; first compound 0.06325 µM): 0.0538 | relative viability ([6]; first compound 0.2 µM): 0.04 | relative viability ([7]; first compound 0.002 µM): 0.953 | relative viability ([7]; first compound 0.006325 µM): 0.953 | relative viability ([7]; first compound 0.02 µM): 1.01 | relative viability ([7]; first compound 0.06325 µM): 0.915 | relative viability ([7]; first compound 0.2 µM): 0.229 | relative viability ([8]; first compound 0.002 µM): 0.806 | relative viability ([8]; first compound 0.006325 µM): 0.653 | relative viability ([8]; first compound 0.02 µM): 0.367 | relative viability ([8]; first compound 0.06325 µM): 0.119 | relative viability ([8]; first compound 0.2 µM): 0.0858 | relative viability ([9]; first compound 0.002 µM): 1.14 | relative viability ([9]; first compound 0.006325 µM): 0.918 | relative viability ([9]; first compound 0.02 µM): 1.04 | relative viability ([9]; first compound 0.06325 µM): 0.0632 | relative viability ([9]; first compound 0.2 µM): 0.0663 | relative viability ([10]; first compound 0.002 µM): 0.47 | relative viability ([10]; first compound 0.006325 µM): 0.514 | relative viability ([10]; first compound 0.02 µM): 0.264 | relative viability ([10]; first compound 0.06325 µM): 0.161 | relative viability ([10]; first compound 0.2 µM): 0.148

CCNC(=O)c1noc(-c2cc(C(C)C)c(O)cc2O)c1-c1ccc(CN2CCOCC2)cc1 [Luminespib] + C[C@]1(O)C[C@@H](c2nc(-c3ccc4ccc(-c5ccccc5)nc4c3)c3c(N)nccn32)C1 [Linsitinib] (partner 1 µM)
relative viability ([1]; first compound 0.002 µM): 0.645 | relative viability ([1]; first compound 0.006325 µM): 0.583 | relative viability ([1]; first compound 0.02 µM): 0.236 | relative viability ([1]; first compound 0.06325 µM): 0.14 | relative viability ([1]; first compound 0.2 µM): 0.0621 | relative viability ([2]; first compound 0.002 µM): 0.869 | relative viability ([2]; first compound 0.006325 µM): 0.941 | relative viability ([2]; first compound 0.02 µM): 0.676 | relative viability ([2]; first compound 0.06325 µM): 0.257 | relative viability ([2]; first compound 0.2 µM): 0.227 | relative viability ([3]; first compound 0.002 µM): 1.08 | relative viability ([3]; first compound 0.006325 µM): 0.783 | relative viability ([3]; first compound 0.02 µM): 0.712 | relative viability ([3]; first compound 0.06325 µM): 0.0985 | relative viability ([3]; first compound 0.2 µM): 0.0978 | relative viability ([4]; first compound 0.002 µM): 0.919 | relative viability ([4]; first compound 0.006325 µM): 0.89 | relative viability ([4]; first compound 0.02 µM): 0.273 | relative viability ([4]; first compound 0.06325 µM): 0.0912 | relative viability ([4]; first compound 0.2 µM): 0.0942 | relative viability ([5]; first compound 0.002 µM): 0.793 | relative viability ([5]; first compound 0.006325 µM): 0.783 | relative viability ([5]; first compound 0.02 µM): 0.665 | relative viability ([5]; first compound 0.06325 µM): 0.788 | relative viability ([5]; first compound 0.2 µM): 0.901 | relative viability ([6]; first compound 0.002 µM): 0.601 | relative viability ([6]; first compound 0.006325 µM): 0.424 | relative viability ([6]; first compound 0.02 µM): 0.284 | relative viability ([6]; first compound 0.06325 µM): 0.0358 | relative viability ([6]; first compound 0.2 µM): 0.0299 | relative viability ([7]; first compound 0.002 µM): 0.978 | relative viability ([7]; first compound 0.006325 µM): 0.935 | relative viability ([7]; first compound 0.02 µM): 0.989 | relative viability ([7]; first compound 0.06325 µM): 0.582 | relative viability ([7]; first compound 0.2 µM): 0.451 | relative viability ([8]; first compound 0.002 µM): 1.26 | relative viability ([8]; first compound 0.006325 µM): 0.448 | relative viability ([8]; first compound 0.02 µM): 0.426 | relative viability ([8]; first compound 0.06325 µM): 0.0721 | relative viability ([8]; first compound 0.2 µM): 0.123 | relative viability ([9]; first compound 0.002 µM): 1.21 | relative viability ([9]; first compound 0.006325 µM): 1.2 | relative viability ([9]; first compound 0.02 µM): 1.21 | relative viability ([9]; first compound 0.06325 µM): 1.13 | relative viability ([9]; first compound 0.2 µM): 0.0697 | relative viability ([10]; first compound 0.002 µM): 0.612 | relative viability ([10]; first compound 0.006325 µM): 0.629 | relative viability ([10]; first compound 0.02 µM): 0.203 | relative viability ([10]; first compound 0.06325 µM): 0.168 | relative viability ([10]; first compound 0.2 µM): 0.199
